SMILES strings stand for the structures. Values joined by “and” are separate entries in the source; they are usually repeats but may differ in a detail not shown here. Equal values may be shown once.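 Growth conditions: 96-well plates. Treatment: test compound, 48 hours, 5 concentrations. Analysis: linear interpolation between bracketing concentrations; unreached endpoints set to highest concentration. Abbreviation: GI50, concentration required for 50% inhibition of growth. Definition used: TGI = concentration required for complete inhibition of growth.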 Some results are limits rather than exact numbers.

Eight compounds from PubChem BioAssay (NCI) can be followed below.

Among the test systems are DU-145 prostate; HCT-116 colon; LOX IMVI melanoma; NCI/ADR-RES ovarian; UACC-62 melanoma; HL-60(TB) leukemia; 786-0 renal; A549 NSCLC; HOP-62 NSCLC; MOLT-4 leukemia.
Test in all cases: inhibition of tumour cell growth, NCI panel, 48 h

For the compound `Cc1c(C(=O)Nc2ccc(N3C[C@@H](C)O[C@@H](C)C3)nc2)cccc1-c1ccc(OC(F)(F)F)cc1`, the GI50 in the assay with DU-145 prostate is 8.25 µM and 4.84 µM; in the assay on HCT-116 colon, 3.4 µM and 3.85 µM; with LOX IMVI melanoma it was 7.11 µM and 7.68 µM; in the assay on NCI/ADR-RES ovarian, 5.69 µM and 13.5 µM; with UACC-62 melanoma it was 9.08 µM and 12.7 µM; in the assay with HL-60(TB) leukemia, 7.25 µM and 22.7 µM. The GI50 with 786-0 renal is 3.61 µM and 5.77 µM; in the assay on A549 NSCLC it was 4.91 µM and 6.91 µM; in the assay with HOP-62 NSCLC it was 12.2 µM and 16.5 µM; in the assay on MOLT-4 leukemia it was 7.59 µM and 8.47 µM. In addition, the TGI in the assay on DU-145 prostate is 25.1 µM and 20.9 µM; in the assay with HCT-116 colon it was above 100 µM; in the assay on LOX IMVI melanoma, 31.9 µM and 67.5 µM; in the assay on NCI/ADR-RES ovarian it was 26.6 µM and 42.1 µM; in the assay with UACC-62 melanoma, 27.6 µM and 35.7 µM; with HL-60(TB) leukemia, above 100 µM. Further, the TGI in the assay on 786-0 renal was 21 µM and 30 µM; in the assay on A549 NSCLC, 22.1 µM and 32.1 µM; in the assay on HOP-62 NSCLC, 46.2 µM and 36.8 µM; with MOLT-4 leukemia, above 100 µM.
For the compound `C=C1C(=O)O[C@@H]2/C=C(/C)[C@@H](OC(C)=O)C[C@@H](O)/C(C)=C\[C@@H](OC(=O)[C@]3(C)O[C@@H]3C)[C@@H]12`, the TGI was 28.1 µM in the assay with DU-145 prostate; 13.6 µM in the assay with HCT-116 colon; 20.4 µM with LOX IMVI melanoma; above 100 µM with NCI/ADR-RES ovarian; 31.9 µM with UACC-62 melanoma; 7.85 µM in the assay on HL-60(TB) leukemia. For the same compound, the TGI in the assay on 786-0 renal is 15.8 µM; in the assay on A549 NSCLC, above 100 µM; with HOP-62 NSCLC, above 100 µM; in the assay on MOLT-4 leukemia it was 20.7 µM.
With `CCC[CH2][Sn]1([CH2]CCC)[O]C(=O)c2cccc([N+](=O)[O-])c2C(=O)[O]1`, the GI50 in the assay with DU-145 prostate is 0.795 µM; in the assay with HCT-116 colon, 0.435 µM; with LOX IMVI melanoma it was 0.259 µM; in the assay with NCI/ADR-RES ovarian, 1.53 µM; with UACC-62 melanoma it was 0.381 µM; in the assay with HL-60(TB) leukemia, 0.206 µM. In addition, the GI50 in the assay with 786-0 renal is 0.724 µM; in the assay on A549 NSCLC, 1.77 µM; with HOP-62 NSCLC, 1.92 µM; with MOLT-4 leukemia, 0.409 µM. The TGI with DU-145 prostate was determined as 2.05 µM; in the assay with HCT-116 colon it was 1.62 µM; in the assay on LOX IMVI melanoma it was 0.7 µM; in the assay with NCI/ADR-RES ovarian, 3.21 µM; in the assay on UACC-62 melanoma, 1.5 µM; in the assay on HL-60(TB) leukemia it was 1.35 µM. The TGI in the assay with 786-0 renal turned out to be 1.99 µM; with A549 NSCLC, 3.59 µM; with HOP-62 NSCLC, 3.36 µM; with MOLT-4 leukemia, 2.98 µM.
Regarding `COc1cc2[nH]c3c(c2cc1OC)CCN[C@@]31CC[C@@]2(CC3c4c(cc(OC)c(O)c42)CCN3C)C[C@@H]1OC` (some centres undefined), the TGI is above 100 µM with DU-145 prostate; above 87.4 µM with HCT-116 colon; 41.4 µM in the assay on LOX IMVI melanoma; above 85.1 µM with NCI/ADR-RES ovarian; 45.3 µM in the assay with UACC-62 melanoma; 30.7 µM in the assay on HL-60(TB) leukemia. Besides, the TGI was above 100 µM in the assay on 786-0 renal, above 100 µM in the assay on A549 NSCLC, above 100 µM with HOP-62 NSCLC and above 56.2 µM with MOLT-4 leukemia.
For the compound `Cc1nnc(N/N=C/c2ccc([N+](=O)[O-])o2)[nH]c1=O`, the GI50 is 2.1 µM with DU-145 prostate; 0.57 µM with HCT-116 colon; 0.659 µM in the assay with LOX IMVI melanoma; 1.75 µM in the assay with NCI/ADR-RES ovarian; 0.666 µM in the assay with UACC-62 melanoma; 2.5 µM with HL-60(TB) leukemia. The GI50 in the assay with 786-0 renal is 0.649 µM; in the assay on A549 NSCLC, 2.57 µM; with HOP-62 NSCLC it was 1.45 µM; with MOLT-4 leukemia, 0.833 µM. The TGI was above 100 µM with DU-145 prostate; above 100 µM in the assay with HCT-116 colon; above 100 µM in the assay on LOX IMVI melanoma; above 100 µM with NCI/ADR-RES ovarian; 7.75 µM in the assay on UACC-62 melanoma; above 100 µM with HL-60(TB) leukemia. Also, the TGI in the assay on 786-0 renal is 15.3 µM; in the assay with A549 NSCLC it was above 49.5 µM; with HOP-62 NSCLC, above 68.2 µM; in the assay with MOLT-4 leukemia, above 100 µM.
`CCN(CC)CCOc1nc2ccccc2c2c1-c1ccc(OC)cc1C2=O`: the GI50 is 0.505 µM in the assay on DU-145 prostate; 0.331 µM in the assay on HCT-116 colon; 0.432 µM in the assay with LOX IMVI melanoma; 0.807 µM with NCI/ADR-RES ovarian; 1.7 µM in the assay with UACC-62 melanoma; 0.395 µM in the assay on HL-60(TB) leukemia. For the same compound, the GI50 with 786-0 renal was 1.17 µM; in the assay with A549 NSCLC it was 0.514 µM; with HOP-62 NSCLC, 1.13 µM; in the assay with MOLT-4 leukemia, 0.251 µM. Besides, the TGI in the assay with DU-145 prostate was 2.16 µM; in the assay on HCT-116 colon, 1.55 µM; in the assay with LOX IMVI melanoma, 1.81 µM; in the assay on NCI/ADR-RES ovarian, 34.5 µM; in the assay on UACC-62 melanoma it was 4.48 µM; in the assay on HL-60(TB) leukemia, 1.85 µM. Moreover, the TGI is 2.68 µM in the assay on 786-0 renal, 4.55 µM in the assay on A549 NSCLC and 0.924 µM in the assay with MOLT-4 leukemia.
`Cn1nc(C(F)(F)F)cc1-c1cc(Cl)c(OCc2ccc(Cl)cc2)c(-c2ccc(Cl)c(C(F)(F)F)c2)c1O`: the GI50 in the assay on DU-145 prostate was 1.76 µM; with HCT-116 colon it was 0.691 µM; with LOX IMVI melanoma, 1.16 µM; in the assay with NCI/ADR-RES ovarian, 1.35 µM; in the assay on UACC-62 melanoma, 0.91 µM; in the assay on HL-60(TB) leukemia, 1.12 µM. Also, the GI50 in the assay on 786-0 renal was 1.07 µM; with A549 NSCLC, 1.41 µM; in the assay on HOP-62 NSCLC it was 1.26 µM; with MOLT-4 leukemia it was 1.01 µM. The TGI is 6.87 µM in the assay on DU-145 prostate; 1.86 µM in the assay on HCT-116 colon; 3.12 µM in the assay with LOX IMVI melanoma; 5.33 µM in the assay with NCI/ADR-RES ovarian; 2.51 µM in the assay with UACC-62 melanoma; 2.49 µM in the assay with HL-60(TB) leukemia. Further, the TGI with 786-0 renal was determined as 2.63 µM; in the assay with A549 NSCLC, 5.6 µM; in the assay on HOP-62 NSCLC, 3.3 µM; in the assay with MOLT-4 leukemia, 2.39 µM.
For the compound `Cc1cc2nc3c(C#N)c(C)c(CCCl)c(Cl)n3c2cc1C`, the TGI with DU-145 prostate stood at 13.6 µM; in the assay with HCT-116 colon it was 3.06 µM; in the assay with LOX IMVI melanoma, 2.88 µM; in the assay with NCI/ADR-RES ovarian it was 21.5 µM; in the assay with UACC-62 melanoma, 4.12 µM; in the assay with HL-60(TB) leukemia, 5.57 µM. For the same compound, the TGI came to 3.69 µM with 786-0 renal, 17.7 µM in the assay on A549 NSCLC, 4.64 µM in the assay on HOP-62 NSCLC and 6.95 µM in the assay with MOLT-4 leukemia.
